For 62 compounds, GI50 and TGI results are on record in PubChem BioAssay (NCI).

Several values for one entry are separate records, joined by “and”; a condition that tells them apart may be missing. Equal values may be shown once.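 Method: 48-hour compound exposure of cells in 96-well plates, five concentrations, linear interpolation of endpoints. The concentration for 50% growth inhibition is given as GI50. TGI marks complete inhibition of growth.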

Holding throughout (assay): inhibition of tumour cell growth, NCI panel, 48 h
Experiment [1] deals with T-47D breast.
Experiment [2] relates to LXFL 529 NSCLC.
In experiment [3] the test system is M19-MEL melanoma.
The subject of experiment [4] is SNB-78 CNS.
The subject of experiment [5] is HOP-18 NSCLC.
Experiment [6] deals with DLD-1 colon.
In experiment [7] the test system is XF 498 CNS.
For experiment [8], the system named is MDA-N.
Experiment [9] relates to RXF-631 renal.

For `CC(C)(C)C[C@H]1N[C@@H](C(=O)NC2CCC(O)CC2)[C@H](c2cccc(Cl)c2F)[C@@]12C(=O)Nc1cc(Cl)ccc12` (stereo not given in full), in experiment [1], the GI50 is 5.98 µM and the TGI was found to be 22.8 µM.
The like results for `COc1ccc(-n2cc(-c3ccc(OC)c(OC)c3)[nH]c2=O)cc1` were, in that order, greater than 100 µM and greater than 100 µM.
`O=C(c1ccccc1)C1N=NN(Cc2ccccc2[N+](=O)[O-])C1C(=O)c1ccccc1` (stereo not given): the TGI in [2], in experiment [3], in experiment [4], in [5] and in [6] was greater than 100 µM each time.
For `Cc1ccccc1NC(=O)CSc1nnc(-c2ccc(N=Cc3ccc(Cl)cc3)cc2)o1`, the TGI in [2], in experiment [3], in experiment [4], in [5] and in experiment [7] was greater than 100 µM each time.
As for `O=c1[nH]c(C2CCCN2)nc2c1oc1ccc(Cl)cc12` (stereo not given), in experiment [1], the GI50 is 30.5 µM and the TGI is greater than 100 µM.
On the same counts, the results for `Cn1c(COC(=O)NCCn2ccnc2)nc2c(N3CCOCC3)nc(-c3ccccc3)nc21` are 1.43 µM and 4.17 µM.
As to `COc1c2ccoc2nc2c(OC)c(OCC(O)C(C)(C)O)ccc12` (stereo not given), the TGI in experiment [1] and in experiment [8] was greater than 100 µM in each case.
For `Cc1nnc2n1N=C(c1ccccc1)C(c1ccccc1)S2` (stereo not given), the TGI in experiment [2], in experiment [3], in experiment [4], in experiment [5], in experiment [7] and in experiment [6] was greater than 100 µM throughout.
In the case of `CC1(C)CC(C)(C)c2cc(NC(=S)Nc3ccc([N+](=O)[O-])cc3)ccc2S1`, in [1], the GI50 was 17.1 µM and the TGI is greater than 52.6 µM.
`NCCO/C=C/C(N)C(=O)O` (stereo not given): the TGI in [1] and in experiment [8] was greater than 100 µM throughout.
For the compound `COC1=CC(=O)O/C1=C(\OC)C1OC1c1ccccc1` (stereo not given), in experiment [1], the TGI is greater than 100 µM.
In the case of `O=C1CC23CCCCCCCCCCC2(C1)CC(=O)C3` (stereo not given), the TGI in experiment [2] is greater than 100 µM; in experiment [3], 48.4 µM; in experiment [5] it was 92.7 µM; in [7] it was 49.2 µM; in experiment [6], greater than 100 µM.
Turning to `Cc1cc2c(c(C(=O)O)c1C)-c1cccc(Cl)c1C2=O`, the TGI in [2], in experiment [3], in experiment [4], in experiment [7] and in experiment [6] was greater than 100 µM each time.
For `CN(C)C(=S)/N=c1\ss/c(=N\C(=S)N(C)C)n1-c1cccc(Cl)c1`, the TGI in [4] is greater than 100 µM.
For the compound `CC1=NN(c2cccc(Cl)c2)C(=O)/C1=C\c1cn(CC(O)CN2CCCCC2)c2ccccc12` (stereo not given), in [1], the GI50 was 15.8 µM and the TGI was 36.2 µM.
The like results for `O=C(Nc1n[nH]c2cc(-c3cc(F)ccc3F)ccc12)C1CC1` were, in that order, 11.8 µM and greater than 25 µM.
Turning to `COC(=O)C1CC(c2ccc(OC)c(OC)c2)OC1=O` (mixture of isomers), the TGI in experiment [2], in experiment [3], in [9], in experiment [4], in [7] and in experiment [6] was greater than 100 µM each time.
Turning to `CCOc1ccc(NC(=O)/C(CC(=O)c2c[n+](=O)c3ccccc3n2[O-])=N\OCCCc2ccccc2)cc1`, the TGI in experiment [2], in [3], in experiment [9], in experiment [4] and in experiment [6] was greater than 100 µM in each case.
As for `COc1cc(O)ccc1C(=S)SC`, the TGI in [1] was greater than 100 µM.
Regarding `O=S(=O)(NC1=NCCN1C(=S)SN1CCn2c1nsc2=S)c1ccc(Cl)cc1`, in [1], the GI50 was 5.38 µM and the TGI was found to be 23.3 µM.
With `CCCC(=O)O[C@]1(C)CC[C@@H]2[C@H]3[C@@H]1[C@@H]1C[C@@](C)(O)[C@H](OC)CC[C@](C)(OC(=O)[C@@H]2C)[C@H]3O1`, in experiment [1], the GI50 is 21.6 µM and the TGI came out at 44.5 µM.
As to `COc1ccc(-c2ccc(OC)c(OC)c2OC)cc1`, in experiment [1], the GI50 was 5.87 µM and the TGI was greater than 100 µM.
On the same counts, the results for `C/C(=N/NC(=S)Nc1ccccc1)c1nc2ccc(Cl)cc2[nH]1` are 0.292 µM and 1.56 µM.
The like results for `COc1ccc(-c2ccc(C3CC(c4ccccc4)=NN3)o2)c([N+](=O)[O-])c1` (stereo not given) were, in that order, greater than 100 µM and greater than 100 µM.
As for `CC(C)(C)C#COC(=O)c1ccccc1`, the TGI in experiment [2], in experiment [3], in experiment [4] and in experiment [6] was greater than 100 µM throughout.
With `O=C(Nc1ccc(Cl)cc1C(F)(F)F)C(=O)Nn1c(=S)[nH]c2ccccc2c1=O`, the TGI in [1] and in experiment [8] was greater than 100 µM throughout.
Turning to `COc1cc2c(cc1C)NC(=O)/C2=C/c1ccnc2ccccc12`, in [1], the GI50 is 28.7 µM and the TGI was greater than 50 µM.
The like results for `CC(C)C[C@@H](N)[C@@H](O)C(=O)N[C@H](C(=O)N[C@H](C(=O)N[C@@H](CC(=O)O)C(=O)O)C(C)C)C(C)C` were, in that order, greater than 20 µM and greater than 20 µM.
Regarding `COc1cc2c(cc1OCCNC(=O)/C=C1\C[C@H]3C=Nc4cc(OCc5ccccc5)c(OC)cc4C(=O)N3C1)N=C[C@@H]1CCCN1C2=O`, in experiment [1], the GI50 was 2.77 µM and the TGI turned out to be 55.9 µM.
Regarding `Cc1n[nH]c2ccccc2c1=O`, the TGI in experiment [1] and in [8] was greater than 100 µM each time.
With `c1cnc2c(c1)-n1cccc1C1(CCCCC1)NN2`, the TGI in [5] and in experiment [7] was greater than 100 µM throughout.
Turning to `CN1CCCC2[C@@H]3CCC4c5nonc5CC[C@]4(C)C3CC[C@@]21C` (stereo not given in full), the TGI in [2] is greater than 100 µM; in experiment [3], greater than 100 µM; in experiment [4] it was greater than 100 µM; in experiment [5], greater than 100 µM; in [7], 81.8 µM; in experiment [6], greater than 100 µM.
Regarding `CC(=O)[CH-]C(C)=O.CC(=O)[CH-]C(C)=O.[O-]c1ccccc1.[O-]c1ccccc1.[Ti+4]`, the GI50 in [2], in [5], in experiment [7] and in experiment [6] was greater than 100 µM each time. Also, the TGI in [2], in [5], in [7] and in [6] was greater than 100 µM throughout.
In the case of `CN1CCN(C2=NC(=O)/C(=C\c3ccc(N(C)C)cc3)S2)CC1`, in experiment [1], the GI50 was 36.7 µM and the TGI is greater than 100 µM.
The like results for `Cc1cccc(N2C(=O)/C(=C/C(Cl)=C/c3ccc([N+](=O)[O-])cc3)SC2=S)c1C` were, in that order, 2.7 µM and greater than 100 µM.
With `N=C1CCCC1C(=S)SCCC(N)=O` (stereo not given), the TGI in experiment [1] and in [8] was greater than 100 µM in each case.
`Cc1cccc(C2NC(=O)c3ccccc3N2)c1` (stereo not given): the TGI in experiment [1] was greater than 100 µM; in [8], 3.45 µM.
As for `O=c1[nH]ccc(CNC23CC4CC(CC(C4)C2)C3)c1O`, the TGI in experiment [2], in [3], in experiment [4], in experiment [5], in [7] and in [6] was greater than 100 µM in each case.
Turning to `COc1ccc(-c2nc3ccccc3s2)cc1OC`, in experiment [8], the TGI is greater than 100 µM.
With `CCN(CC)C(=S)SSC(C)C`, in experiment [1], the GI50 was 14.2 µM and the TGI came to 33.7 µM.
Take `COc1cc(C)c2c(c1)CN1CN2Cc2cc(OC)cc(C)c21`: the TGI in experiment [2], in experiment [3], in experiment [4] and in experiment [6] was greater than 100 µM each time.
For `O=C1NC(=NCCc2ccc(Cl)cc2)S/C1=C\c1ccc2ncccc2c1`, in [1], the GI50 was 18.1 µM and the TGI was greater than 25 µM.
As to `Cc1ccc(C2=CC(=O)c3ccccc3C2=O)n1-c1ccccc1`, the TGI in experiment [2], in experiment [3], in experiment [4], in experiment [5], in experiment [7] and in [6] was greater than 100 µM throughout.
As for `OCc1ccc(N(Cc2ccc(F)cc2)Cc2ccc(F)cc2)cc1Cl`, in [1], the GI50 was 3.31 µM and the TGI was 15.4 µM.
The like results for `CN(C)CCC(=O)Nc1ccc(-n2cc(-c3cccc(NC(=S)Nc4cccc(-c5cn(-c6ccc(NC(=O)CCN(C)C)cc6)nn5)c4)c3)nn2)cc1` were, in that order, 34.1 µM and greater than 100 µM.
The like results for `O=C1c2cccc3cccc(c23)C(=O)N1CCCCCN1CCN(CCN=c2cc3n(-c4ccc(Cl)cc4)c4ccccc4nc-3cc2Nc2ccc(Cl)cc2)CC1` were, in that order, 32.8 µM and greater than 50 µM.
Consider `COc1ccc(-n2c(=S)sc3c(Cl)nc(C)nc32)c(OC)c1`, for which, in experiment [1], the GI50 was 6.42 µM and the TGI was found to be 21.6 µM.
For the compound `OCC(O)C(O)C(O)C(/C=N\Nc1ncnc2c(Br)cc(Br)cc12)=N/Nc1ncnc2c(Br)cc(Br)cc12` (stereo not given), the TGI in experiment [8] was 23.2 µM and > 100 µM.
Turning to `COc1cc(/C=N/NC(=O)c2cnn3c2NC(c2ccccc2)C3)ccc1OC1CCCC1` (stereo not given), in [1], the GI50 was 0.704 µM and the TGI was 10.4 µM.
Consider `O=C1/C(=C/c2ccccc2)Oc2cc(O)ccc21`, for which the TGI in [1] and in experiment [8] was greater than 100 µM in each case.
Consider `Nc1cc2c3c(cccc3c1)C(=O)N(CCN1CCCC1)C2=O`, for which, in [1], the GI50 is 1.93 µM and the TGI was 9.36 µM.
With `Cn1c(COC(=O)NCCc2ccccn2)nc2c(N3CCOCC3)nc(Cl)nc21`, in experiment [1], the GI50 was 1.65 µM and the TGI stood at 3.67 µM.
For the compound `O=c1c2cccnc2ncn1CCCN1CCCCC1`, the TGI in experiment [3], in [4], in experiment [7] and in experiment [6] was greater than 100 µM each time.
For `COc1ccc(-c2ccc(CC(=O)O)cc2)cc1OC`, the TGI in experiment [2], in [3], in experiment [4], in experiment [7] and in [6] was greater than 100 µM in each case.
Turning to `CC1CCC2C(C)C(=O)OC2C2(C)C(=O)C=CC12` (stereo not given), the TGI in experiment [1] and in experiment [8] was greater than 10 µM each time.
Regarding `Cn1c(=O)oc2cc(C3CCC(=O)N3Cc3csc(-c4ccccc4)n3)ccc21` (stereo not given), the TGI in [2], in experiment [3], in [4], in experiment [5], in experiment [7] and in experiment [6] was greater than 100 µM in each case.
As to `Cc1cccc(C)c1NC(=O)C(=O)Cc1nc2ccccc2s1`, the TGI in experiment [2], in experiment [3], in experiment [4], in experiment [7] and in [6] was greater than 100 µM throughout.
Take `C1=CC(=P(c2ccccc2)(c2ccccc2)c2ccccc2)C=C1`: the TGI in [2] was found to be 13 µM; in experiment [3], 14.2 µM; in [9], 46.7 µM; in experiment [4], 26.7 µM; in experiment [7], 12.6 µM; in [6], 62.5 µM.
On to `Oc1ccc(Cl)cc1C=Nc1cnc2ccccc2c1`, for which the TGI in [1] was 51.3 µM; in experiment [8] it was greater than 100 µM.
In the case of `O=C(Nc1sc2c(c1C(=O)O)CCCC2)c1ccco1`, in [1], the GI50 is greater than 50 µM and the TGI was greater than 50 µM.
For `Cc1ccc(/C(=N/Nc2ccc([N+](=O)[O-])cc2)Sc2cc(Cl)c(C)cc2S(N)(=O)=O)cc1`, in [1], the GI50 was 3.14 µM and the TGI was greater than 23.2 µM.
On the same counts, the results for `COc1cc(C2CC(c3ccc(Nc4nc(NCCO)nc(NCCO)n4)cc3)=NN2c2cc(Cl)cc(Cl)c2)cc(OC)c1OC` (stereo not given) are 1.18 µM and 12.1 µM.
